For series [1] the following is noted: 121 C for 10 min heat step; cited from earlier work.
Series [2] deals with E. coli. Type of series: cell-based. Particulars: purified microcin J25 added to cellular reactions, E. coli cell death. On the procedure:
(A) Cell-free assay of mccj25 activity. […] (B) Inhibition of E. coli in vivo growth by purified microcin J25. Data, final concentrations.
It is seen in FIG. 7B that adding purified microcin J25 to cellular reactions causes cell death with a MIC of 0.1 uM. If microcin J25 produced in cell-free systems is at high enough concentration, those skilled in the art will recognize that the MIC curve for killing live E. coli will be the similar. However, avoiding phage in the reaction is essential to ensure that the MIC is accurate and not caused by propogation of infecting phage carried over in a typical cell-free reaction that is contaminated with phage.

The subject of series [3] is E. coli. The settings on record: cited from earlier work.
For series [4], the system named is Salmonella. The settings on record: mouse models; cited from earlier work.
Series [5] addresses T1, E. coli RNA polymerase (Escherichia coli, UniProt P0A8T7+P0A8V2). The series is classed as biochemical. The arrangement: endogenous in cells; host or cells: E. coli cell-free lysate (extract eZS6 or eAC15, prepared per Sun et al. 2013). Particulars: lasso cluster co-expressed with sigma70 GFP reporter in E. coli cell-free system.
Method: All reactions contain 40019 in plasmid form at 2.66 nM, and the reaction is done in E. coli extract “eZS6” at 25% lysate, 75% buffer concentration, prepared as listed in (Sun et al., 2013) or “eAC15” at 30% lysate, 70% buffer concentration. GFP concentration was kept at 2 nM, and the other components kept at a total of 6 nM to control for competition affects.
These are run in a E. coli-based cell-free lysate system in different concentrations, as listed by nM concentrations described in the chart, with all reactions containing 4 nM sigma70-UTR1-GFP and 3.5 μM gamS to protect linear templates.
Our expression system incorporates these coding sequences individually with a sigma70 promoter, UTR and terminator. […] A GFP construct (40019 in linear) was assembled in the same way. Linear DNAs were generated either by PCR amplification from plasmid or the DNA assemblies themselves. We used 3.5 μM GamS to prevent template degradation in E. coli lysate. Reactions were run at 10 μl scale in a 384-well format. The reaction is done in E. coli extract “eZS6” at 25% lysate, 75% buffer concentration, prepared as listed in (Sun et al., 2013). Timecourses of GFP intensity were taken, and 12 hr endpoints were used to generate the heatmap. GFP intensity of lasso-cluster-containing reaction was normalized to their paired negative controls.
We expressed our GFP construct in the same reactions as our lasso constructs. GFP (4009 in linear) was expressed at 4 nM and the lasso cluster genes at 0.6 nM.
The format of series [6] is in vitro ADME, E. coli. On the procedure: Linear constructs were expressed in 10 μl cell free reactions with 2% flurotect (a tRNA carrying a BODIPY labelled lysine) and 8 nM DNA constructs for MBP-A or MBP (1065, 1066). 2 μl of these reactions were prepared in 20 μl sample buffer (50 mM bis-Tris, 2% SDS, 10% glycerol) and run on a 4-12% bis-tris PAGE gel (ThermoFisher Scientific) at 200V for 20 min.
To stabilize mcjA, the peptide can be tagged either on the N terminus or the C terminus as a fusion protein that provides a stable domain that prevents proteolysis of mcjA. A linker and/or targeting region can be added to remove the tag. In an example, we tag mcjA with a maltose binding protein (MBP), generating a construct 1065 (SEQ ID NO.: 19) and compare the expression of 1065 to a wildtype MBP, 1066 (SEQ ID NO.: 20). In a SDS-PAGE gel expressing both constructs in FIG. 18, the expressed fusion protein was stable and easily visualized on a gel.

The target in series [7] is T1, E. coli RNA polymerase. Particulars: has been shown previously; cited from earlier work.

In brackets after ≈: the same amount, converted by molar mass. Read-outs that look alike come from different tables or passages of the source. Where a SMILES comes first, the peptide text is derived from it. Bridges are numbered along the chain shown (N, C = ends).

T1 sequence (P0A7Z4 whole entry): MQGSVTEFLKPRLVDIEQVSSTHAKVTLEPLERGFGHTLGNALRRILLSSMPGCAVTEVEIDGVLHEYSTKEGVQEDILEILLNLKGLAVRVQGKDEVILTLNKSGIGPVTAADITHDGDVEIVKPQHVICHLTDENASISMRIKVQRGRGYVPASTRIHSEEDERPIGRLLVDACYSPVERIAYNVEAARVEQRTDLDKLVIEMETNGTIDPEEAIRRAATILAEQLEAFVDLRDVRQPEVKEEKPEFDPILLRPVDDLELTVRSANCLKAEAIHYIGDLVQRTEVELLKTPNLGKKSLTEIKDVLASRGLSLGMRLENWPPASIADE
T1 sequence (P0A8V2 whole entry): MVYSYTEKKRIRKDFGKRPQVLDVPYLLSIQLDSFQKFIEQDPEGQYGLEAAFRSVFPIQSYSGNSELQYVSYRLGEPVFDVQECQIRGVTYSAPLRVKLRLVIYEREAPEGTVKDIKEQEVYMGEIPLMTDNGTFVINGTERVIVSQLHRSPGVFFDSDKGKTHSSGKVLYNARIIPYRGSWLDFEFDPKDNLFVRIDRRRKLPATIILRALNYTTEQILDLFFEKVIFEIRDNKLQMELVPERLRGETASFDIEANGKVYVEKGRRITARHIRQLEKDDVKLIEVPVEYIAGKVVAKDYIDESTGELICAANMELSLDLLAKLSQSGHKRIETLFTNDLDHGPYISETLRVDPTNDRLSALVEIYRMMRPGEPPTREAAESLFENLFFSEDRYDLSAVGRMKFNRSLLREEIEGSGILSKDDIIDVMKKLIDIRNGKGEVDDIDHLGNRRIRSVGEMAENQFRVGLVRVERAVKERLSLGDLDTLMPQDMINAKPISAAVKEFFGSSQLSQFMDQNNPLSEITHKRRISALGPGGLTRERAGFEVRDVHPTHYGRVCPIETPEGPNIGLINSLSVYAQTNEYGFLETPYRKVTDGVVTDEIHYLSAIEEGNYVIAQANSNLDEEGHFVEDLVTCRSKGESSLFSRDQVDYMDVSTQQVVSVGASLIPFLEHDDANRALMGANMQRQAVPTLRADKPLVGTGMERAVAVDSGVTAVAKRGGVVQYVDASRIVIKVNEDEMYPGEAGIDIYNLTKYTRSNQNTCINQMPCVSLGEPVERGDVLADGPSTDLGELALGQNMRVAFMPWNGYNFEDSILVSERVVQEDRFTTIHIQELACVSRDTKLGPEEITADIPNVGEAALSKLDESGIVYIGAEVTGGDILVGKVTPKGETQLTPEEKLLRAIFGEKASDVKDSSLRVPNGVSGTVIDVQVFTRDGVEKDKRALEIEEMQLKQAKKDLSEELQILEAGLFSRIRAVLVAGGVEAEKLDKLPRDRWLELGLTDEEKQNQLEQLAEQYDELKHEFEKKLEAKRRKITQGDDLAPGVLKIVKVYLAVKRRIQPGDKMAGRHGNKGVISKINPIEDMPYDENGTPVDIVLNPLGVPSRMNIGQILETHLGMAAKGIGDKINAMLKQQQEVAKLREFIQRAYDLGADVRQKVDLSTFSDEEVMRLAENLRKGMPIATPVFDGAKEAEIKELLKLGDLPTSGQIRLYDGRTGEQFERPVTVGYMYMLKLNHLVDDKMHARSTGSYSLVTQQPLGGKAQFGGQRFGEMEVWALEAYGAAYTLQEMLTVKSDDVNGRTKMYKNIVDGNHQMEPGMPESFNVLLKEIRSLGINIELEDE
T1 sequence (P00579 whole entry, further chain): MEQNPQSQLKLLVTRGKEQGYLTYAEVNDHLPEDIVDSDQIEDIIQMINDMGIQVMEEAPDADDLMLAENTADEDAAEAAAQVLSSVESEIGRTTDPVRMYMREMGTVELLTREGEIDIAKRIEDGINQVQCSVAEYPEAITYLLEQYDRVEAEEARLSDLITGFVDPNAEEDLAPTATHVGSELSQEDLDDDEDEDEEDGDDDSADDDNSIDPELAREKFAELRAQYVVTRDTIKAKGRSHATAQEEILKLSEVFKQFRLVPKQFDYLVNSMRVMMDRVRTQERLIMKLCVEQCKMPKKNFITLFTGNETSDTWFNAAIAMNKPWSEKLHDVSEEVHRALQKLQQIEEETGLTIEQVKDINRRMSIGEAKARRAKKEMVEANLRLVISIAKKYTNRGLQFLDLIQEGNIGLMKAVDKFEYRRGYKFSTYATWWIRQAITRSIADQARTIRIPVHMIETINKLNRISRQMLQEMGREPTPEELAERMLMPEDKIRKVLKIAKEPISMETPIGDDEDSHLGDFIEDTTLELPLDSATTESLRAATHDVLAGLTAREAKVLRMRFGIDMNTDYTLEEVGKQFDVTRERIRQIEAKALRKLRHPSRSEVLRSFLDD
T1 sequence (P0A8T7 whole entry): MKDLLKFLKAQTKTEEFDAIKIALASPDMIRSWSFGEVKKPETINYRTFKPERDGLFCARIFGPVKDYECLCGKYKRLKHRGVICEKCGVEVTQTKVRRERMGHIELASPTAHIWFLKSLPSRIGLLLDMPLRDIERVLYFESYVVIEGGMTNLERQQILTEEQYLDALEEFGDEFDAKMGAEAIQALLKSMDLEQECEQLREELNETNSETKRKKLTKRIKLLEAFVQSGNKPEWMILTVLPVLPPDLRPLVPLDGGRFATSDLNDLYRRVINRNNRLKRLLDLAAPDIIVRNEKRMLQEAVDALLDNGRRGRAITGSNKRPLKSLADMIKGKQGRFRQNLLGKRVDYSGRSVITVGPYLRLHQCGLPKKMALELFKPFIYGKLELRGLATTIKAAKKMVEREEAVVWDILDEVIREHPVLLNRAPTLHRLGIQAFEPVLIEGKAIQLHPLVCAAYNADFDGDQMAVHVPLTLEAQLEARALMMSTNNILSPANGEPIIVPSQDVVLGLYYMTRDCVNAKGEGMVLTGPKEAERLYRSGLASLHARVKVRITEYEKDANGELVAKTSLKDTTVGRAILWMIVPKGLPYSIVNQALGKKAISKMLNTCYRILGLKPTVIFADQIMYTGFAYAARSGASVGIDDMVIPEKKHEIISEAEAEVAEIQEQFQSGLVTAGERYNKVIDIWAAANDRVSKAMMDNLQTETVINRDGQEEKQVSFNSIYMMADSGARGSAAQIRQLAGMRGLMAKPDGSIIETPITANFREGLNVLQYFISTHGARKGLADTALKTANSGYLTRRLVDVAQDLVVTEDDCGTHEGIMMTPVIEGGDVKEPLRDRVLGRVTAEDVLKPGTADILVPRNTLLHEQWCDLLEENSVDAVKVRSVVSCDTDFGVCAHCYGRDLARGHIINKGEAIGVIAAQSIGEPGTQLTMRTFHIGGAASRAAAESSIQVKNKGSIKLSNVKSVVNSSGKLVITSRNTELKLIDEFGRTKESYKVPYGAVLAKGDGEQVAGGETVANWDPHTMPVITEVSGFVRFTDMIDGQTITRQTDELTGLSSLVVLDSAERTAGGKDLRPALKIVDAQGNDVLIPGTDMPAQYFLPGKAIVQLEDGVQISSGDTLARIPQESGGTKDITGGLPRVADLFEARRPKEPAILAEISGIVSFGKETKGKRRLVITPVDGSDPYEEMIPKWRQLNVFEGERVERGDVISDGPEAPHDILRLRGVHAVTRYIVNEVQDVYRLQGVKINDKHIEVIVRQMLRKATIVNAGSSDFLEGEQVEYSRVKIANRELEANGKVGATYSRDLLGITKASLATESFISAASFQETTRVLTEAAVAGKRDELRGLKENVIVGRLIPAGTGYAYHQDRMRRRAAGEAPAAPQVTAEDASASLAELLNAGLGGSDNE
T1 sequence (P0A800 whole entry, further chain): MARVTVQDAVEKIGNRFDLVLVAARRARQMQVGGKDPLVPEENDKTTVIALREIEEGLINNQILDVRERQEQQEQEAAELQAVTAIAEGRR

For the molecule `CC[C@H](C)[C@H](NC(=O)CNC(=O)[C@@H](NC(=O)[C@H](Cc1ccccc1)NC(=O)[C@H](Cc1ccc(O)cc1)NC(=O)[C@@H]1CCC(=O)NCC(=O)NCC(=O)N[C@@H](C)C(=O)NCC(=O)N[C@@H](Cc2cnc[nH]2)C(=O)N[C@@H](C(C)C)C(=O)N2CCC[C@H]2C(=O)N1)C(C)C)C(=O)NCC(=O)N[C@H](C(=O)N1CCC[C@H]1C(=O)N[C@H](C(=O)N[C@@H](CO)C(=O)N[C@@H](Cc1ccccc1)C(=O)N[C@@H](Cc1ccc(O)cc1)C(=O)NCC(=O)O)[C@@H](C)CC)[C@@H](C)O` [microcin J25] (GGAGHVPEYFVGIGTPISFYG-OH; lactam N-8), in series [1], the heat stability result was “heat-stable”.
Take `CC[C@H](C)[C@H](NC(=O)CNC(=O)[C@@H](NC(=O)[C@H](Cc1ccccc1)NC(=O)[C@H](Cc1ccc(O)cc1)NC(=O)[C@@H]1CCC(=O)NCC(=O)NCC(=O)N[C@@H](C)C(=O)NCC(=O)N[C@@H](Cc2c[nH]cn2)C(=O)N[C@@H](C(C)C)C(=O)N2CCC[C@H]2C(=O)N1)C(C)C)C(=O)NCC(=O)N[C@H](C(=O)N1CCC[C@H]1C(=O)N[C@H](C(=O)N[C@@H](CO)C(=O)N[C@@H](Cc1ccccc1)C(=O)N[C@@H](Cc1ccc(O)cc1)C(=O)NCC(=O)O)[C@@H](C)CC)[C@@H](C)O` [microcin J25] (GGAGHVPEYFVGIGTPISFYG-OH; lactam N-8; C-terminus assumed): the MIC (usually the smallest concentration in the dilution series that meets the test's criterion for growth inhibition) in series [2] was 0.1 µM (≈ 0.211 µg/mL); in series [3] it was 0.02 µg/mL (≈ 9.49 nM). For the same molecule, the “decrease in Salmonella infection” value in series [4] is listed as 3 fold. The results for the “knockdown of GFP expression / native RNA polymerase” value in series [5] and in series [5] (listed as microcinJ25) were “knocks down GFP expression” and “functional knockdown”, respectively.
As for klebsidin, the “knockdown of GFP expression / native RNA polymerase” value in series [5] is recorded as “functional knockdown”.
As to “mcjA: peptide precursor (propeptide) of microcin J25 (MIKHFHFNKLSSGKKNNVPSPAKGVIQIKKSASQLTKGGAGHVPEYFVGIGTPISFYG; full-length; UniProt Q9X2V7 1-58, looked up)”, the “stability when expressed in E. coli cell-free systems” value in series [6] is “known to degrade”.
As for caulosegnin, in series [7], the “RNA polymerase inhibitory activity” value is given as “not to have RNA polymerase inhibitory activity”. The “knockdown of GFP expression / native RNA polymerase” value in series [5] is “no effect on GFP expression”.

(Values after US20200109429A1, “Methods and Systems for Cell-Free Biodiscovery of Natural Products” (Synvitrobio, Inc., priority 2017, published 2020).)
